From US7557142B2, “Therapeutic use of methionine to reduce the toxicity of platinum-containing anti-tumor compounds” (Board of Trustees of Southern Illinois University, priority 1996, dated 2009)
Entries after “also recorded” stand apart in the source; their conditions may differ. Structures can show the parent of a compound that is named as a salt.

What was measured:
rats = details: cited from earlier work; for CDDP nephroprotection: literature (Jones et al.; others)
[1] = literature; cited from earlier work
[2] = literature; cited from earlier work; remark: listed apart in the source
animals = details: literature, cited from earlier work
male Wistar rats [3] = assay: Auditory Brainstem Testing (ABR) of auditory threshold, D-Met before CDDP; format: in vivo, rat
male Wistar rats [4] = assay: Scanning electron microscopy, outer hair cell count per cochlear turn; format: in vivo, rat; details: for outer hair cell findings, middle and basal turns: versus untreated control, 75, 150, 300 mg/kg D-Met prior to 16 mg/kg CDDP
Protocol: (§1) Complete data sets were obtained for five groups of five male Wistar rats (280-421 g). All animals were anesthetized with […] IM of Rompun cocktail (a solution containing 86.21 mg/ml ketamine and 2.76 mg/ml xylazine) prior to all injections and testing. Anesthesia was supplemented as needed with half doses throughout testing.
(§2) ABR data were analyzed using a three factor analysis of variance (ANOVA) with one between subject factor (groups) and two within subject factors (frequency and pre- vs. post-test). Each dependent variable was analyzed independently. Tests subsequent to the ANOVA were carried out in accordance with the Tukey HSD procedure. Weight loss and/or gastrointestinal protection was measured using the same type of statistical analysis as the ABR measures. SEM data were analyzed for each turn using a one way analysis of variance with Post-Hoc Tukey HSD analysis. The criterion for statistical significance for all measures was p≦0.01.

male Wistar rats [5] = system: male Wistar rats
Protocol: as §1
Each animal's weight was measured in an Ohaus triple beam balance scale before administration of the anesthetic for the pretest and again before the post-test 3 days later.
as §2

male Wistar rats [6] = system: male Wistar rats; remark: listed apart in the source
Protocol: as §1

hamsters = details: Church et al. (1995); cited from earlier work
patients [7] = details: cited from earlier work
[8] = parenteral administration in humans; Printen et al., 1979; cited from earlier work
[9] = system: NHIK 3025 in vitro human uterine cervix carcinoma in situ cancer cells; details: methionine, presumably a racemic mixture; Melvik and Petterson, 1987; cited from earlier work
[10] = system: Walker 256 carcinosarcoma; details: rat, in vivo; cited from earlier work
patients [11] = details: human, in vivo; cited from earlier work
[12] = 16 mg/kg CDDP alone (treated control)

O=C(O)CCCC[C@@H]1SC[C@@H]2NC(=O)N[C@@H]21 [Biotin]
CDDP nephroprotection (rats): good CDDP nephroprotection | effect on CDDP anti-tumor action [1]: inhibits anti-tumor activity

Nc1ccc(S(=O)(=O)Nc2nccs2)cc1 [Sulfathiazole]
CDDP nephroprotection (rats): provides protection against CDDP nephrotoxicity

C[C@H](CS)C(=O)N1CCC[C@H]1C(=O)O [Captropril]
CDDP nephroprotection (rats): protects against CDDP nephrotoxicity

CC1=C(C(=O)O)N2C(=O)[C@@H](NC(=O)[C@H](N)c3ccccc3)[C@H]2SC1 [Cephalexin]
prevention of CDDP kidney pathology (rats; Jones et al., 1992): does not prevent kidney pathology | CDDP nephroprotection (rats): protects against CDDP-induced kidney dysfunction and weight loss | protection against CDDP-induced weight loss [2]: protects against CDDP-induced kidney dysfunction and weight loss

O=S([O-])([O-])=S.[Na+].[Na+] [STS, sodium thiosulfate]
CDDP nephroprotection (rats): reduces CDDP nephrotoxicity | effect on CDDP anti-tumor action [1]: may reduce CDDP tumoricidal action; also recorded: reduces the latter's tumoricidal action | CDDP otoprotection (animals; animals): good CDDP otoprotection | protection against CDDP-induced weight loss [2]: may exacerbate CDDP-induced weight loss and mortality

Cc1ncc(C[n+]2csc(CCO)c2C)c(N)n1 [thiamine-HCl]
CDDP nephroprotection (rats): does not protect against cisplatin nephrotoxicity or weight loss | protection against CDDP-induced weight loss [2]: does not protect against cisplatin nephrotoxicity or weight loss

CC(S)C(=O)NCC(=O)O (stereo not shown) [N-(2-mercapto-propionyl)glycine]
CDDP nephroprotection (rats): exacerbate CDDP nephrotoxicity

CSCC[C@@H](N)C(=O)O [D-Met, D-methionine]
animals with complete otoprotection as defined by no significant ABR threshold shift for any stimulus (male Wistar rats [3]; 75 mg/kg D-Met i.p. 30 minutes prior to 16 mg/kg CDDP, ABR 3 days later): 2/5 | animals with complete otoprotection as defined by no significant ABR threshold shift for any stimulus (male Wistar rats [3]; 150 mg/kg D-Met i.p. 30 minutes prior to 16 mg/kg CDDP, ABR 3 days later): 3/5 | animals with complete otoprotection for all stimulus conditions (male Wistar rats [3]; 300 mg/kg D-Met i.p. 30 minutes prior to 16 mg/kg CDDP, ABR 3 days later): 5 animals | ABR thresholds compared with treated control group, all stimuli (male Wistar rats [3]; any level of D-Met (75, 150, 300 mg/kg) prior to 16 mg/kg CDDP, p≦0.01): significantly lower ABR thresholds than the treated control group | hair cell counts, apical turn (male Wistar rats [4]; all groups, apical turn): essentially normal hair cell counts | outer hair cell findings, middle and basal turns (male Wistar rats [4]): only the treated control group showed significantly different findings | weight loss compared with treated control group (male Wistar rats [5]; 300 mg/kg D-Met prior to 16 mg/kg CDDP, 3 days): significantly less than that in the treated control group | CDDP-induced weight loss versus D-Met dose (male Wistar rats [5]; 75, 150, 300 mg/kg D-Met prior to 16 mg/kg CDDP): diminished as D-Met dosing increased | alopecia: coat and hair loss versus control group animals (male Wistar rats [6]; D-Met prior to 16 mg/kg CDDP): significantly less hair loss | neuroprotection: activity and coordination versus surviving treated controls (male Wistar rats [6]; morning of the third day, D-Met prior to 16 mg/kg CDDP): noticeably more lively, active, and coordinated | CDDP nephroprotection (rats): highly effective CDDP nephroprotection

CSCC[C@H](N)C(N)=O [L-methioninamide]
CDDP nephroprotection (rats): excellent CDDP nephroprotection | effect on CDDP anti-tumor action [1]: impairs CDDP anti-tumor action

CCN(CC)C(=S)S [DDTC, diethyldithiocarbamate]
side effects of the protective agent (animals): can produce severe side effects

CCOC(=O)[C@@H](N)CS [Ethyl-L-cysteinate]
CDDP nephroprotection (rats): exacerbate CDDP nephrotoxicity

CSc1ncccc1C(=O)O [2-(methylthio)nicotinic acid]
CDDP nephroprotection (rats): does not provide nephroprotection in rats

NCCCNCCSP(=O)(O)O [WR2721]
protection from CDDP ototoxicity or mortality (hamsters): no WR2721 protection from ototoxicity or mortality | effect on nausea and vomiting (patients [7]; Glover et al., 1987): does not ameliorate nausea and vomiting | CDDP nephroprotection (patients [7]; Mollman et al., 1988): excellent CDDP nephroprotection | patients with mild to severe hearing loss (patients [7]; WR2721 prior to CDDP, Glover et al. (1987)): 20 of 36 | incidence of significant hearing threshold shift (patients [7]; patients pretreated with WR2721 prior to CDDP, Rubin et al. (1995)): 45%

CC1(C)S[C@@H]2[C@H](NC(=O)Cc3ccccc3)C(=O)N2[C@H]1C(=O)[O-].[Na+] [sodium salt of penicillin G, penicillin G]
CDDP nephroprotection (rats): does not protect against CDDP nephrotoxicity or weight loss | protection against CDDP-induced weight loss [2]: does not protect against CDDP nephrotoxicity or weight loss

CSCCC(N)C(=O)O (racemic) [DL-methionine]
plasma levels of isomers [8]: higher plasma levels of the D- isomer

CO[C@@]1(NC(=O)Cc2cccs2)C(=O)N2C(C(=O)O)=C(COC(N)=O)CS[C@@H]21 [cefoxitin]
CDDP nephroprotection (rats): does not provide nephroprotection | protection against CDDP-induced weight loss [2]: some protection against CDDP-induced weight loss

CSCC[C@H](N)C(=O)O (racemic) [methionine]
effect of preadministration on CDDP cytotoxicity [9]: sensitized NHIK 3025 in vitro human uterine cervix carcinoma in situ cancer cells to CDDP cytotoxicity

N.N.[Cl][Pt][Cl] [CDDP, cis-diamminedichloroplatinum(II)]
outer hair cell findings, middle and basal turns (male Wistar rats [4]): significantly different findings from the untreated control group | animals surviving to the end of the study period (male Wistar rats [6]; [12]): 5/10 | animals that did not survive to the end of the study period (male Wistar rats [6]; [12]): 50% | time to complete redistribution after tumor uptake [10]: ≤ 15 min | patients with hearing loss having complete recovery (patients [11]): one of 121
